In paper PMC8222254, “Self-assembly of an anion receptor with metal-dependent kinase inhibition and potent in vitro anti-cancer properties” (Nature Communications, 2021):
Where “and” joins values, the source holds several entries; their conditions need not be identical. Equal values may be shown once.

Assays:
Test in all cases: Kinase inhibition screen, cell-free 33P ATP assay at 10 μM
Assay type in all cases: biochemical
[1] = tested on: 140 purified human kinases; settings: PHK
How it was run: (§1)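 Radiometric ^33P ATP cell-free format with purified enzymes; both complexes run at 10 μM in duplicate, results plotted on a kinome map via HGNC symbols.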

[2] = molecular target: T1, 140 purified human kinases (Homo sapiens, UniProt O60285)
T1 sequence (O60285 1-661): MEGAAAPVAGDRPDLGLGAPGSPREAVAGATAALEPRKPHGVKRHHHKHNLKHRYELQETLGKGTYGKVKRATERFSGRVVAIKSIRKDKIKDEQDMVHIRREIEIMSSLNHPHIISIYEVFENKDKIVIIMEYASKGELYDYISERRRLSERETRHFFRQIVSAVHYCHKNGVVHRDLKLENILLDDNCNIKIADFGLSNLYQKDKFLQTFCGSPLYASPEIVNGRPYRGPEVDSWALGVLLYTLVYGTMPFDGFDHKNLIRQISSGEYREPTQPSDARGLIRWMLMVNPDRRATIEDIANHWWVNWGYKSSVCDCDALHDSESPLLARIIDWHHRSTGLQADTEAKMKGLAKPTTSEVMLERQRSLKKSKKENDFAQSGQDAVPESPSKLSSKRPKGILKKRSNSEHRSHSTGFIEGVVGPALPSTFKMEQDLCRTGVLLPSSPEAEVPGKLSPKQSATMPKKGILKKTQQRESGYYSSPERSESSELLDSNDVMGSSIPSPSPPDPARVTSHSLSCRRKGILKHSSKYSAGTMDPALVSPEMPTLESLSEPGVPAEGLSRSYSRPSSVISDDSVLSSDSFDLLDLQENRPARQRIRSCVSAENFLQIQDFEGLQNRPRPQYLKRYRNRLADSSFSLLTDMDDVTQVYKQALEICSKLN
How it was run: as §1

[3] = molecular target: 140 purified human kinases (Homo sapiens, UniProt Q96RR4); settings: CAMKKb
How it was run: as §1

[4] = molecular target: 140 purified human kinases (Homo sapiens, UniProt Q9H0K1)
How it was run: as §1

[5] = molecular target: T2, 140 purified human kinases (Homo sapiens, UniProt Q15139)
T2 sequence (Q15139 1-912): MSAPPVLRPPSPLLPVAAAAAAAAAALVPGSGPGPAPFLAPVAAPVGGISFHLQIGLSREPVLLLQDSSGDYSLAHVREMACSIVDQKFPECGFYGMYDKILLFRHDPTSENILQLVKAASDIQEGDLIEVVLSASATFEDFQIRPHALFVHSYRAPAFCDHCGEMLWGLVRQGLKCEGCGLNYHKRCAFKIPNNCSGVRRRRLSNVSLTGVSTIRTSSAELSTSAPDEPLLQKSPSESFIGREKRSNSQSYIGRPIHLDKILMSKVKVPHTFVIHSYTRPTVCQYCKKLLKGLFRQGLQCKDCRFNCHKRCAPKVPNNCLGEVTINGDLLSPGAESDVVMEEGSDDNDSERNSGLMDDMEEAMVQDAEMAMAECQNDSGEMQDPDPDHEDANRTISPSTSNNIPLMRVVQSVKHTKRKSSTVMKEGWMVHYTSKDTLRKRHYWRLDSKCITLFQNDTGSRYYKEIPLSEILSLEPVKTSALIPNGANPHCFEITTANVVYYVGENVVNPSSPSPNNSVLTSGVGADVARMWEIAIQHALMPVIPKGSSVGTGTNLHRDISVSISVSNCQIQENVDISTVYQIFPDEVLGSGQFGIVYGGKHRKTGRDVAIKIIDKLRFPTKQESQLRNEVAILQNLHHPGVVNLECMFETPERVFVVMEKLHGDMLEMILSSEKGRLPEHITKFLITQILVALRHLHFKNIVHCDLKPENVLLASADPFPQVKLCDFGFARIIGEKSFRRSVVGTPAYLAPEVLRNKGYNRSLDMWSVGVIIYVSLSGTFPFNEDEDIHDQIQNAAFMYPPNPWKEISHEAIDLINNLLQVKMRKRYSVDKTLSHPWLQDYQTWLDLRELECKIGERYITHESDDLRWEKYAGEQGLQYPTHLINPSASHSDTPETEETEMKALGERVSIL
How it was run: as §1

[6] = molecular target: 140 purified human kinases (Homo sapiens, UniProt Q15746); settings: SmMLCK
How it was run: as §1

[7] = molecular target: 140 purified human kinases (Homo sapiens, UniProt Q13233)
How it was run: as §1

[8] = molecular target: 140 purified human kinases (Homo sapiens, UniProt Q13177)
How it was run: as §1

[9] = molecular target: 140 purified human kinases (Homo sapiens, UniProt P43405); settings: SYK
How it was run: as §1

140 purified human kinases (Homo sapiens, UniProt Q13177), sequence (Q13177 whole entry): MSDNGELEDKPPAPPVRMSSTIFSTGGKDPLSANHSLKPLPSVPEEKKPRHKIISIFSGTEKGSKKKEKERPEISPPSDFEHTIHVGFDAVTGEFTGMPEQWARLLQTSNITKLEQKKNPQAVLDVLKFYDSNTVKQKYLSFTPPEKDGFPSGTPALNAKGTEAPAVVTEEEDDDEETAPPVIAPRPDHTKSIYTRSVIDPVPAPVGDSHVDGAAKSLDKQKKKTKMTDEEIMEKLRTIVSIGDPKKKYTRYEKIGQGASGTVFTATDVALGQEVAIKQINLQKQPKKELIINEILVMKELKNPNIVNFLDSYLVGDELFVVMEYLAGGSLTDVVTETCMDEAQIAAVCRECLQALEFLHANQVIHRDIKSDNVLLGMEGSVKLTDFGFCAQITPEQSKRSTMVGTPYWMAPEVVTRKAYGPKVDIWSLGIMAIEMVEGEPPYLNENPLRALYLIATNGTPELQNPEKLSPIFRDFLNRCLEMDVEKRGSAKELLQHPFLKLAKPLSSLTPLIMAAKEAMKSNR
140 purified human kinases (Homo sapiens, UniProt Q9H0K1), sequence (Q9H0K1 whole entry): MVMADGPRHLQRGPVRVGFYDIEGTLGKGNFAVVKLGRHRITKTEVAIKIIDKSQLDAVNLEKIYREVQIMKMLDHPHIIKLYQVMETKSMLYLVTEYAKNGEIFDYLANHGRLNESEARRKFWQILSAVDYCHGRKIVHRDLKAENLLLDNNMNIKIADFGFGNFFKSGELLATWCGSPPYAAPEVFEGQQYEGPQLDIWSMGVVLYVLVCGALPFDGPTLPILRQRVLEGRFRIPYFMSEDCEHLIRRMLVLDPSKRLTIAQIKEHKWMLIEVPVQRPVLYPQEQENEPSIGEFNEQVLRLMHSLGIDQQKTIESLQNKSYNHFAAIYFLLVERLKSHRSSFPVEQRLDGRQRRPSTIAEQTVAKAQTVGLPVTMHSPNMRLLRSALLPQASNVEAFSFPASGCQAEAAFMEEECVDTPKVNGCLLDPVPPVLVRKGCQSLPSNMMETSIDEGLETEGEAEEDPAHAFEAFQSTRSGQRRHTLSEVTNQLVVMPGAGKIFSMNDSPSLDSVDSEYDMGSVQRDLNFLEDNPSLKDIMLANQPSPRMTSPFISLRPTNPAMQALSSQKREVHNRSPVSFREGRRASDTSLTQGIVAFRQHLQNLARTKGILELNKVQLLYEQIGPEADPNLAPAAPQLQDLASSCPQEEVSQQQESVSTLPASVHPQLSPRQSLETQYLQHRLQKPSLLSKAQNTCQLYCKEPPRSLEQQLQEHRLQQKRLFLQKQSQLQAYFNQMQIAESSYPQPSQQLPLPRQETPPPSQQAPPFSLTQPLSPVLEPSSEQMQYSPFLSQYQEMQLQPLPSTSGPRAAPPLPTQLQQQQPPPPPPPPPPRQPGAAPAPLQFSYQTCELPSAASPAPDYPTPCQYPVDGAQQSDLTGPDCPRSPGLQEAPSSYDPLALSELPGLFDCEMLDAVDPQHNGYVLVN
140 purified human kinases (Homo sapiens, UniProt Q96RR4), sequence (Q96RR4 whole entry): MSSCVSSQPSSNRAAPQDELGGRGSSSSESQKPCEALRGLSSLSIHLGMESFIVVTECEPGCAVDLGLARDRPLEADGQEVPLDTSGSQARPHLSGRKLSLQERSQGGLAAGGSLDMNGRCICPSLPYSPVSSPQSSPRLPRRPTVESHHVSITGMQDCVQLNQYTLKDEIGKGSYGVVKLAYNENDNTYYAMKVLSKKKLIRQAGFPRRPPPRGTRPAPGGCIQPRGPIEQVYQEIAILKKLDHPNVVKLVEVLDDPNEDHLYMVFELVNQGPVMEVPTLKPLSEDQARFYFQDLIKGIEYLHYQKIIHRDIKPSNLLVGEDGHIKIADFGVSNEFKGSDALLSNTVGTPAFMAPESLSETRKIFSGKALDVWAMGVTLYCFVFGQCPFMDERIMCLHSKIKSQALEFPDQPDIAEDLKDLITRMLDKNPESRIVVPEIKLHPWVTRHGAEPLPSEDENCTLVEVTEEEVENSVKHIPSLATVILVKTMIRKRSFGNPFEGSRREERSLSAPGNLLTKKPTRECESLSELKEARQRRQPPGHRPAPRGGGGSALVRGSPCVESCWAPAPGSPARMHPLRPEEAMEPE
140 purified human kinases (Homo sapiens, UniProt Q15746), sequence (Q15746 whole entry): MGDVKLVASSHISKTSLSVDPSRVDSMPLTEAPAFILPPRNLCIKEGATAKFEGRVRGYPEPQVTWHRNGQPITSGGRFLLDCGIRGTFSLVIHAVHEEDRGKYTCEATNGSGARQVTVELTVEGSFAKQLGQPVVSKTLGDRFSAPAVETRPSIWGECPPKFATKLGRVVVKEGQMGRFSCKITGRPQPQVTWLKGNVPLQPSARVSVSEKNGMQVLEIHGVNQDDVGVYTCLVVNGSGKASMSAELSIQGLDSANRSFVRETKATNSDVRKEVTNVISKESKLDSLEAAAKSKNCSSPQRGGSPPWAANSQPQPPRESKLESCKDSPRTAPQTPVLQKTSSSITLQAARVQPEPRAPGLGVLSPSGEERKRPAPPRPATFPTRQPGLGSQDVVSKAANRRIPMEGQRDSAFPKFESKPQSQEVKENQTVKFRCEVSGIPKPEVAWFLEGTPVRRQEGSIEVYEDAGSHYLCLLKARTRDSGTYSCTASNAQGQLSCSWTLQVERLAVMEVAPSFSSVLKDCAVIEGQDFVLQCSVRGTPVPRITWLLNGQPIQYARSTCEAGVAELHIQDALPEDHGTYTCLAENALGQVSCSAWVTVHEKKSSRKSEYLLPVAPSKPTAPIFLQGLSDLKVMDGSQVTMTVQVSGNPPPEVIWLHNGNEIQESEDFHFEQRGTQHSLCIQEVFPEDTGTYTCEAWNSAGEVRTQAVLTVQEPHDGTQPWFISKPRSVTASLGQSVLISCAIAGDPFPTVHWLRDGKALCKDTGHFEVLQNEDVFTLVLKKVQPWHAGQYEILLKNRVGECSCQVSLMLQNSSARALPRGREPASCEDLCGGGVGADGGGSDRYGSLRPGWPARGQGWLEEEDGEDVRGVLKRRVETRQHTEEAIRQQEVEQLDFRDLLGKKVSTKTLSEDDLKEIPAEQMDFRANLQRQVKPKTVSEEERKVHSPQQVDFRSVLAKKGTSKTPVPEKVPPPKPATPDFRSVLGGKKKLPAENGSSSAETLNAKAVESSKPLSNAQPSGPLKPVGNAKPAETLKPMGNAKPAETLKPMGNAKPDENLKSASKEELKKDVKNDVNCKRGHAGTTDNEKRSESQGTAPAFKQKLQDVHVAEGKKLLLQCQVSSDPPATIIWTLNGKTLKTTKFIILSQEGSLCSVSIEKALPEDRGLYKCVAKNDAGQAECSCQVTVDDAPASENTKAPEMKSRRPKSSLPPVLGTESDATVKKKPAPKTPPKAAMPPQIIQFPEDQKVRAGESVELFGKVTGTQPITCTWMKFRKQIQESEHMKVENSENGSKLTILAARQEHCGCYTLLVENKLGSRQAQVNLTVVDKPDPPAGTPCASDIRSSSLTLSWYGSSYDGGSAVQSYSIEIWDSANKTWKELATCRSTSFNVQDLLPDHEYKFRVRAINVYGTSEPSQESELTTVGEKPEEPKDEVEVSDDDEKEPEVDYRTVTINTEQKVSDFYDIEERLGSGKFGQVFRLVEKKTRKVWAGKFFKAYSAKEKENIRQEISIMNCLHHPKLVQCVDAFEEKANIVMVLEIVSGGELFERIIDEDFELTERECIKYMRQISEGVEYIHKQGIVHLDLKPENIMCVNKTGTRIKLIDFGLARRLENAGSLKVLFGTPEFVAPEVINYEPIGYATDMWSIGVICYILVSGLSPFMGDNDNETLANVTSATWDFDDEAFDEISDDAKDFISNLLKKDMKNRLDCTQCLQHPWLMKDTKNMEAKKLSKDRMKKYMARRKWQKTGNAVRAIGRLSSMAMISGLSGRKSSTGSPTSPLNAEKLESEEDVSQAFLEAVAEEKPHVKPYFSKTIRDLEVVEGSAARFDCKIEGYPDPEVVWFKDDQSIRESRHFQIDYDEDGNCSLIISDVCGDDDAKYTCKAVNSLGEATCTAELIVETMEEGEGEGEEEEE

In the case of [Cu+2].[Cu+2].[Cu+2].c1ccc(-c2csc(NCCN(CCNc3nc(-c4ccccn4)cs3)CCNc3nc(-c4ccccn4)cs3)n2)nc1.c1ccc(-c2csc(NCCN(CCNc3nc(-c4ccccn4)cs3)CCNc3nc(-c4ccccn4)cs3)n2)nc1 [[L2Cu3]6+], the “% activity” value ([1]; Run 1) is reported as 40.1%, the “% activity” value ([1]; Run 2) is reported as 50.7% and the “% Inhibition Run 1” value ([2]; NUAK1) is reported as 93.9%. The “% Inhibition Run 2” value ([2]; NUAK1) was 92.9%, the “% Inhibition, Mean” value ([2]; NUAK1) was 93% and the mean % activity ([2]; NUAK1) was 6.6%. For the same molecule, the “% activity” value ([2]; NUAK1, Run 1) was 6.1%, the “% activity” value ([2]; NUAK1, Run 2) was 7.1% and the “% Activity inhibition Mean” value ([2]; NUAK1, 10 µM) was 93.4%. The “% Activity inhibition Run 1” value ([2]; NUAK1, 10 µM) was 93.9%, the “% Activity inhibition Run 2” value ([2]; NUAK1, 10 µM) was 92.9% and the “% Activity remaining Run 1” value ([2]; NUAK1, 10 µM) was 6.10%. The “% Activity remaining Run 2” value ([2]; NUAK1, 10 µM) was 7.10%, the “% Inhibition Run 1” value [3] was 42.1% and the “% Inhibition Run 2” value [3] was 54.8%. For the same molecule, the “% Inhibition, Mean” value [3] was 48%, the mean % activity [3] was 52% and the “% activity” value ([3]; Run 1) was 57.9%. The “% activity” value ([3]; Run 2) was 45.2%, the “% Inhibition Run 1” value ([4]; SIK2) was 88.3% and the “% Inhibition Run 2” value ([4]; SIK2) was 90.4%. The “% Inhibition, Mean” value ([4]; SIK2) was 89%, the mean % activity ([4]; SIK2) was 11% and the “% activity” value ([4]; SIK2, Run 1) was 11.7%. For the same molecule, the “% activity” value ([4]; SIK2, Run 2) was 9.6%, the “% Inhibition Run 1” value ([5]; PKD1) was 73% and the “% Inhibition Run 2” value ([5]; PKD1) was 71.7%. For the same molecule, the “% Inhibition, Mean” value ([5]; PKD1) was 72%, the mean % activity ([5]; PKD1) was 28% and the “% activity” value ([5]; PKD1, Run 1) was 27%. The “% activity” value ([5]; PKD1, Run 2) was 28.3%, the “% Inhibition Run 1” value [6] was 59.8% and the “% Inhibition Run 2” value [6] was 52.2%. The “% Inhibition, Mean” value [6] was 56%, the mean % activity [6] was 44% and the “% activity” value ([6]; Run 1) was 40.2%. For the same molecule, the “% activity” value ([6]; Run 2) was 47.8%, the “% Inhibition Run 1” value ([7]; MEKK1) was 48.4% and the “% Inhibition Run 2” value ([7]; MEKK1) was 57.6%. The “% Inhibition, Mean” value ([7]; MEKK1) was 53%, the mean % activity ([7]; MEKK1) was 47% and the “% activity” value ([7]; MEKK1, Run 1) was 51.6%. For the same molecule, the “% activity” value ([7]; MEKK1, Run 2) was 42.4%, the “% Inhibition Run 1” value ([8]; PAK2) was 44.4% and the “% Inhibition Run 2” value ([8]; PAK2) was 32.1%. The “% Inhibition, Mean” value ([8]; PAK2) was 38%, the mean % activity ([8]; PAK2) was 62% and the “% activity” value ([8]; PAK2, Run 1) was 55.6%. The “% activity” value ([8]; PAK2, Run 2) was 67.9%, the “% Inhibition Run 1” value [9] was 88% and the “% Inhibition Run 2” value [9] was 79.4%. The “% Inhibition, Mean” value [9] was 84%, the mean % activity [9] was 16% and the “% activity” value ([9]; Run 1) was 12%. The “% activity” value ([9]; Run 2) was 20.6%.
With CC(=O)[O-].CC(=O)[O-].CC(=O)[O-].CC(=O)[O-].CC(=O)[O-].CC(=O)[O-].[Zn+2].[Zn+2].[Zn+2].c1ccc(-c2csc(NCCN(CCNc3nc(-c4ccccn4)cs3)CCNc3nc(-c4ccccn4)cs3)n2)nc1.c1ccc(-c2csc(NCCN(CCNc3nc(-c4ccccn4)cs3)CCNc3nc(-c4ccccn4)cs3)n2)nc1 [[L2Zn3]6+] the “% Inhibition, Run 1 / Run 2” value [1] was 68% and 61%, the “% Inhibition, Mean” value ([2]; NUAK1) was 61% and the “% Inhibition, Run 1 / Run 2” value ([2]; NUAK1) was 64% and 59%. For the same molecule, the mean % activity ([2]; NUAK1) was 39%, the “% activity” value ([2]; NUAK1, duplicate runs) was 36% and 41% and the “% Inhibition, Mean” value [3] was 44%. The “% Inhibition, Run 1 / Run 2” value [3] was 44%, the mean % activity [3] was 56% and the “% activity” value ([3]; duplicate runs) was 57% and 56%. The “% Inhibition, Mean” value ([4]; SIK2) was 68%, the “% Inhibition, Run 1 / Run 2” value ([4]; SIK2) was 72% and 64% and the mean % activity ([4]; SIK2) was 32%. For the same molecule, the “% activity” value ([4]; SIK2, duplicate runs) was 29% and 36%, the “% Inhibition, Mean” value ([5]; PKD1) was 45% and the “% Inhibition, Run 1 / Run 2” value ([5]; PKD1) was 50% and 40%. The mean % activity ([5]; PKD1) was 55%, the “% activity” value ([5]; PKD1, duplicate runs) was 50% and 60% and the “% Inhibition, Mean” value [6] was 3.75%. For the same molecule, the mean % activity [6] was 96%, the “% activity” value ([6]; duplicate runs) was 76% and 117% and the “% Inhibition, Mean” value ([7]; MEKK1) was 17%. The mean % activity ([7]; MEKK1) was 83%, the “% activity” value ([7]; MEKK1, duplicate runs) was 75% and 92% and the “% Inhibition, Mean” value ([8]; PAK2) was 22%. For the same molecule, the “% Inhibition, Run 1 / Run 2” value ([8]; PAK2) was 23% and 21%, the mean % activity ([8]; PAK2) was 78% and the “% activity” value ([8]; PAK2, duplicate runs) was 77% and 79%. The “% Inhibition, Mean” value [9] was 29%, the mean % activity [9] was 71% and the “% activity” value ([9]; duplicate runs) was 58% and 84%.
